Measured values: PMC9399058, “Preclinical evaluation of FAP-2286 for fibroblast activation protein targeted radionuclide imaging and therapy” (European Journal of Nuclear Medicine and Molecular Imaging, 2022)
Read-outs that look alike come from different tables or passages of the source.

Key:
[1] = tested on: HEK-FAP cells; assay: Fluorescence microscopy of cellular internalization and retention in HEK-FAP cells; type: cell-based, human; details: 5 nM for 1 h at 37 °C, then compound-free medium up to 72 h
Procedure: HEK-FAP cells were seeded on chamber slides (ibidi) and incubated with 5 nM of AF488-labeled FAP-2286 or FAPI-46 for 1 h at 37 °C. Cells were then washed and further incubated for various timepoints. Cell nuclei were stained with 1 µg/mL Hoechst 33342 dye. Lysosomes were stained using LysoTracker Deep Red (Thermo Fisher Scientific). Images were acquired by using the BZ X800E fluorescence microscope (Keyence) at 40 × magnification.
For fluorescence microscopy assay, HEK-FAP cells were seeded in Poly-D-Lysine-coated 8-well chamber slides at 1 x 10^5 cells per well and incubated for 3 days at 37°C, 5% CO2 in a humified incubator. Attached cells were incubated for 1 hour with 5 nM AF488-labeled FAP-2286 or FAPI-46 in incubation buffer at 37°C. For visualization of lysosomes and late endosomes, cells were stained with LysoTracker DeepRed (Thermo Fisher) for 30 minutes at 37 °C.
Cells were washed three times and incubation buffer was added. Following various incubation periods, cells were washed with HBSS and incubated for 5 min with 1 µg/mL Hoechst 33342 dye for nuclei counterstaining at room temperature.
Fluorescence images were acquired by using a Keyence BZ-X800E fluorescence microscope with 40x magnification.

[2] = tested on: HEK-FAP xenograft tumors; assay: SPECT/CT biodistribution of 111In-labeled tracers in HEK-FAP tumor-bearing mice; type: in vivo, mouse; details: every 24 h; HEK-FAP mouse tumor model; 111In-FAPI-04 (Supplementary Fig. S6)
Procedure: (§1) HEK-FAP cell line was generated using the vector pTAR to insert FAP complementary DNA by recombinase-mediated cassette exchange into the pre-tagged HEK293 cells (InSCREENeX). For in vivo HEK-FAP studies, female nude or SCID beige mice (Charles River Laboratories) were subcutaneously implanted with 5 × 10^6 HEK-FAP cells in 150 µL serum-free media:Matrigel (1:1) (Corning). For the patient-derived xenograft (PDX) efficacy study, female NMRI nu/nu mice (Janvier Labs) were subcutaneously implanted with Sarc4809 fragments (Experimental Pharmacology & Oncology Berlin-Buch). All animal experiments were carried out under licenses approved by the respective authorities and in compliance with guidelines on animal welfare.
(§2) Thirty megabecquerels (30 MBq/nmol) ^111In-FAP-2286 (n = 9) or ^111In-FAPI-04 (n = 6) was injected intravenously (IV) into HEK-FAP tumor-bearing mice and the distribution of the radiotracers was assessed using the NanoSPECT/computed tomography (CT) system (Mediso). For PET imaging, 10 MBq of ^68Ga-FAP-2286 or ^68Ga-FAPI-46 (10 MBq/nmol) was given IV into HEK-FAP tumor-bearing mice (n = 3) followed by PET/CT analysis using the nanoScan PET/CT system (Mediso). For SPECT imaging of ^177Lu-labeled FAP-2286 or ^177Lu-labeled FAPI-46, 30 MBq was administered IV (30 MBq/nmol; n = 3) and the distribution of the radiotracers was assessed using the nanoScan SPECT/CT system (Mediso).
(§3) The animal studies were conducted in different laboratories. ^111In-Imaging and efficacy studies using the HEK-FAP model and different doses of ^177Lu-FAP-2286 as well as the Sarc4809 PDX efficacy study took place at Berlin Experimental Imaging Center (BERIC, Germany). The Sarc4809 model was originally derived from a primary lesion of undifferentiated pleomorphic sarcoma. These studies were performed in either female swiss nude (Charles River Laboratories, France – ^111In-Imaging), NMRI nude (Janvier Labs, France – PDX efficacy study) or SCID beige mice (Charles River Laboratories, Germany - ^111In-Imaging). ^68Ga-Imaging and comparative studies with ^177Lu labeled FAP-2286 and FAPI-46 were performed at Minerva Imaging ApS, Denmark using female athymic nude mice (Charles River Laboratories, Germany). For all experiments animals were ordered with an age of approximately 6 weeks. Animals were allowed an acclimatization period of at least one week prior to inoculation. Animals were housed in an animal room with 12 hours light and 12 hours darkness with free access to food and water. A maximum number of 5 animals were housed in the same cage, cages were equipped with nesting material and plastic or paper houses for hiding. Each cage was labeled with study ID, group and animal numbers and test compound. For efficacy studies animals were randomized according to tumor size. Animals were checked daily for any signs of illness or abnormal behavior. Main humane endpoints were defined as tumor volumes > 1500 mm^3, tumor burden > 10% of animal weight, body weight loss >15% and tumor ulceration. When reaching one of these criteria the animal was sacrificed by cervical dislocation. All animal experiments were approved either by the Regional Office for Health and Social Affairs Berlin (LAGeSo), Germany or the National Animal Experiments Inspectorate under the Ministry of Environment and Food of Denmark.
(§4) Imaging and image analysis were performed as described. During the scan, mice were kept under isoflurane anesthesia, and body temperature was maintained under warm air. The following acquisition parameters were used for the respective imaging modality.
(§5) For quantification, VivoQuant (InviCRO) was used to draw regions of interest (ROIs) in relevant tissues, with a ROI drawn over the left ventricle of the heart to serve as blood pool surrogate. […]

[3] = SPECT/CT biodistribution and tumor dosimetry of 177Lu-labeled tracers in HEK-FAP tumor-bearing mice; type: in vivo, mouse; details: mouse, in vivo, iv, 30 MBq IV, HEK-FAP mice; for tissue uptake at 72 h: 72 h p.i.
Procedure: as §1, §2, §3, §4, §5

[4] = tested on: HEK-FAP xenografts; assay: as above; type: in vivo, mouse
Procedure: as §1, §2, §3, §4, §5

[5] = tested on: Sarc4809 PDX; assay: Efficacy study in the Sarc4809 sarcoma PDX model; type: in vivo, mouse; details: 30 MBq single IV dose, Sarc4809 mice
Procedure: as §1
A single dose of the indicated treatments was administered IV on day 0, with vehicle (saline), nonradioactive ^natLu-FAP-2286, 30 or 60 MBq ^177Lu-FAP-2286 (30 MBq/nmol and 60 MBq/nmol, respectively), or 30 MBq ^177Lu-FAPI-46 (30 MBq/nmol). Tumor length and width were measured by caliper, and tumor volume was calculated as 0.5 × (length × width^2). Tumor growth and body weight were monitored 3 times weekly. […]
Calculation of relative tumor volume. Relative tumor volume (RTV as %) is calculated according to the following formula: RTV = (Tᵢ/ T0) × 100, where Tᵢ is the tumor volume at day i and T0 is the tumor volume at day 0. […]

[6] = tested on: neoplastic lesions; parameters: method as in PMID 34168013; details: first-in-human experience of 11 patients ref 51; cited from earlier work

With CCCCCC(=O)N[C@H]1CSCc2cc(CSCCNC(=O)CN3CCN(CC(=O)O)CCN(CC(=O)O)CCN(CC(=O)O)CC3)cc(c2)CSC[C@@H](C(=O)N[C@@H](CCCCNC(=O)c2ccc(-c3c4ccc(=N)c(S(=O)(=O)O)c-4oc4c(S(=O)(=O)O)c(N)ccc34)c(C(=O)O)c2)C(N)=O)NC(=O)[C@H](Cc2ccccc2)NC(=O)[C@H](CCC(N)=O)NC(=O)[C@H]([C@@H](C)O)NC(=O)[C@@H]2CCCN2C(=O)[C@@H]2CCCN2C1=O [AF488-FAP-2286] the “cellular retention by fluorescence microscopy” value [1] was “retained in HEK-FAP cells and secluded in endosomes out to 72 h”.

In the case of N#C[C@@H]1CC(F)(F)CN1C(=O)CNC(=O)c1ccnc2ccc(OCCCN3CCN(C(=O)CN4CCN(CC(=O)O)CCN(CC(=O)O)CCN(CC(=O)O)CC4)CC3)cc12 [FAPI-04, reference compound], the tumor clearance rate [2] is reported as “approximately 50%”.

CCCCCC(=O)N[C@H]1CSCc2cc(CSCCNC(=O)CN3CCN(CC(=O)O)CCN(CC(=O)O)CCN(CC(=O)O)CC3)cc(c2)CSC[C@@H](C(=O)O)NC(=O)[C@H](Cc2ccccc2)NC(=O)[C@H](CCC(N)=O)NC(=O)[C@H]([C@@H](C)O)NC(=O)[C@@H]2CCCN2C(=O)[C@@H]2CCCN2C1=O [^177Lu-FAP-2286, metal not drawn] gave a tissue uptake at 3 h ([3]; 3 h after injection, read-out: kidney accumulation) of 2.2 %ID/g, a tissue uptake at 3 h ([3]; 3 h p.i., n=3, read-out: tumor uptake) of 21.1 %ID/g and a tissue uptake at 72 h ([3]; n=3, read-out: tumor uptake) of 16.4 %ID/g. The tissue uptake at 72 h ([3]; read-out: kidney accumulation) was 0.6 %ID/g, the tumor retention ([4]; HEK-FAP mouse model, SPECT/CT image quantification) was ≥ 72 h and the tumor absorbed dose ([4]; HEK-FAP tumor self-dose) was 2.8 Gy/MBq. The “time-integrated activity coefficient (TIAC), tumor” value ([4]; HEK-FAP tumor, calculated from SPECT/CT, extrapolated beyond 72 h) was 11.2 MBq*h/MBq, the “Max. BWL, Day 2” value [5] was 3% and the “SPECT/CT biodistribution in patients” value [6] was “significant tumor uptake and long retention”.
